Source: patent US9399666B2, “Inhibiting interaction between the HIF-1ALPHA and p300/CBP with hydrogen bond surrogate-based helices” (New York University, priority 2008, dated 2016)
One block for each molecule: values may come before it. Peptide text beside a SMILES is read from it.

What was measured:
[1] = test system: VEGF transcription in HeLa cells; assay: VEGF gene expression by real-time qRT-PCR; format: cell-based; details: FIG. 7
Excerpt: Real-time qRT-PCR was used to determine the effect of HBS helices on the level of expression of VEGF and GLUT1 genes in HeLa and MCF-7 cells, both under normoxic and hypoxic conditions. For VEGF analysis, the forward primer 5′AGGCCAGCACATAGGAGAGA-3′ (SEQ ID NO: 105) and reverse primer 5′TTTCCCTTTCCTCGAACTGA-3′ (SEQ ID NO:106) were used to amplify a 104-bp fragment from the […] of the gene. For GLUT1 (SLC2A1) analysis, the following sequences were utilized to yield a product of 179 bp: forward sequence 5′-TAGAAACATGGTTTTGAAATGC-3′ (SEQ ID NO:107), reverse sequence 5′-GGTAACAGGGATCAAACAGATT-3′ (SEQ ID NO:108). The levels of expression of β-glucuronidase were used as endogenous controls, since they remain unchanged under experimental conditions. The forward primer 5′-CTCATTTGGAATTTTGCCGATT-3′ (SEQ ID NO:109) and reverse primer 5′-CCGAGTGAAGATCCCCTTTTTA-3′ (SEQ ID NO:110) were used for this gene. Temperature cycling and detection of the SYBR green emission were performed with an ABI 7300 real-time PCR instrument. Data were analyzed with ABI Sequence Detection System, version 1.2. Statistical analysis was performed with the data from six independent experiments. The experiment was performed with Applied Biosystems SYBR Green RT-PCR master mix.

[2] = Percent helicity by circular dichroism spectroscopy; format: physicochemical
Excerpt: Helix αA of HIF-1α C-TAD, shown in FIG. 1A and FIG. 1C, is critical for the interaction between the CH1 domain and HIF-1α, because mutation of its residues or hydroxylation of Asn803 is known to disrupt this complex and inhibit HIF-1α mediated transcription (Freedman et al., “Structural Basis for Recruitment of CBP/p300 by Hypoxia-inducible Factor-1α,” Proc. Nat'l Acad. Sci. USA 99:5367-72 (2002); Dames et al., “Structural Basis for Hif-1α/CBP Recognition in the Cellular Hypoxic Response,” Proc. Nat'1 Acad. Sci. USA 99:5271-6 (2002). Development of HBS helices as potential inhibitors of VEGF transcription was begun by mimicking the aA helix region of HIF-1. This helix consists of eight residues, […] (SEQ ID NO: 111), and features three residues, Asp-Cys-Glu, critical for binding with p300/CBP. Several linear peptides and their HBS α-helix analogs were designed to gauge the potential of these molecules to inhibit VEGF transcription in cell culture. Each unconstrained peptide and HBS helix was synthesized using the procedures described in (Dimartino et al., “Solid-phase Synthesis of Hydrogen-bond Surrogate-derived α-Helices,” Org. Lett. 7:2389-92 (2005); Chapman & Arora, “Optimized Synthesis of Hydrogen-bond Surrogate Helices: Surprising Effects of Microwave Heating on the Activity of Grubbs Catalysts,” Org. Lett. 8:5825-8 (2006)). The percent helicity of each peptide was determined using circular dichroism spectroscopy in 10 mM phosphate buffered saline as described in (Wang et al., “Evaluation of Biologically Relevant Short α-Helices Stabilized by a Main-chain Hydrogen-bond Surrogate,” J. Am. Chem. Soc. 128:9248-56 (2006)). The affinity of each peptide for p300 was measured by isothermal titration calorimetry analysis (Wiseman et al., “Rapid Measurement of Binding Constants and Heats of Binding Using a New Titration calorimeter,” Anal. Biochem. 179:131-7 (1989); Freire et al., “Isothermal Titration calorimetry,” Anal. Chem. 62:A950-A959 (1990); Chervenak & Toone, “Calorimetric Analysis of the Binding of Lectins with Overlapping Carhohydrate-binding Ligand Specificities,” Biochemistry 34:5685-95 (1995); Aki et al., “Competitive Binding of Drugs to the Multiple Binding Sites on Human Serum Albumin. A calorimetric Study,” J Thermal Anal. calorim. […] The ability of each peptide to downregulate VEGF transcription in cell culture was evaluated by […] quantitative RT-PCR, as described above. The cytotoxicity of each peptide was determined by monitoring cellular growth and population doubling in the presence of individual peptides at 1μM concentration.

circular dichroism = details: 10 mM phosphate buffered saline (par. 0128, each peptide; pH given only for 22 and 25, Fig 6B), pH 7.4, ns °C
MDA-MB-231-HRE-Luc cells = format: cell-based
Experimental: MDA-MB-231-HRE-Luc cells were maintained in high glucose Dulbecco's Modified Eagle's Medium (“DMEM”) supplemented with 10% fetal bovine serum and 0.4 g/L Geneticin (G418 sulfate, RPI Corporation). Cells were plated in 24-well dishes (BD Falcon) at a density of […] using 1 mL of a 6.5×10^4 cell/mL suspension. […] Cells were incubated for 6 hours at 37° C. in a humidified atmosphere with 5% CO2. Hypoxia was induced by adding desferoxamine mesylate (DFO, Sigma) to a final concentration of 300 μM, and cells were incubated for an additional 18 hours. Whole cell lysates were isolated by washing the cells twice with ice cold PBS and then adding 150 μL of Cell Culture Lysis Reagent (“CCLR,” Promega). Lysate was collected, centrifuged at 13,000 rpm at 4° C., aliquoted, and stored at −80° C. Luciferase assays were conducted according to the manufacturer's instructions (Promega) using a Turner TD-20e Luminometer. Relative light intensity measurements were normalized by performing a Bradford assay to determine the protein content of the lysate used in the luciferase assay. Briefly, 50 μL of cell lysate/luciferase assay reagent mix was added to 200 μL of Bradford reagent and 750 μL of Millipore water in a 1.5 mL cuvette. Protein standards were created in the range of 1 μg/mL to 10 μg/mL with the appropriate amount of a 1 mg/mL BSA solution. Absorbance was measured at 595 nm using a DU-800 spectrophotometer. The experiments were carried out in triplicate with the error bars calculated as standard error of the mean.

p300 [3] = biological target: p300 (Homo sapiens, UniProt Q09472); assay: Affinity for p300 by isothermal titration calorimetry; format: binding; details: isothermal titration calorimetry, p300; read-out: Kd (ITC)
Excerpt: Helix αA of HIF-1α C-TAD, shown in FIG. 1A and FIG. 1C, is critical for the interaction between the CH1 domain and HIF-1α, because mutation of its residues or hydroxylation of Asn803 is known to disrupt this complex and inhibit HIF-1α mediated transcription (Freedman et al., “Structural Basis for Recruitment of CBP/p300 by Hypoxia-inducible Factor-1α,” Proc. Nat'l Acad. Sci. USA 99:5367-72 (2002); Dames et al., “Structural Basis for Hif-1α/CBP Recognition in the Cellular Hypoxic Response,” Proc. Nat'1 Acad. Sci. USA 99:5271-6 (2002). Development of HBS helices as potential inhibitors of VEGF transcription was begun by mimicking the aA helix region of HIF-1. This helix consists of eight residues, […] (SEQ ID NO: 111), and features three residues, Asp-Cys-Glu, critical for binding with p300/CBP. Several linear peptides and their HBS α-helix analogs were designed to gauge the potential of these molecules to inhibit VEGF transcription in cell culture. Each unconstrained peptide and HBS helix was synthesized using the procedures described in (Dimartino et al., “Solid-phase Synthesis of Hydrogen-bond Surrogate-derived α-Helices,” Org. Lett. 7:2389-92 (2005); Chapman & Arora, “Optimized Synthesis of Hydrogen-bond Surrogate Helices: Surprising Effects of Microwave Heating on the Activity of Grubbs Catalysts,” Org. Lett. 8:5825-8 (2006)). The percent helicity of each peptide was determined using circular dichroism spectroscopy in 10 mM phosphate buffered saline as described in (Wang et al., “Evaluation of Biologically Relevant Short α-Helices Stabilized by a Main-chain Hydrogen-bond Surrogate,” J. Am. Chem. Soc. 128:9248-56 (2006)). The affinity of each peptide for p300 was measured by isothermal titration calorimetry analysis (Wiseman et al., “Rapid Measurement of Binding Constants and Heats of Binding Using a New Titration calorimeter,” Anal. Biochem. 179:131-7 (1989); Freire et al., “Isothermal Titration calorimetry,” Anal. Chem. 62:A950-A959 (1990); Chervenak & Toone, “Calorimetric Analysis of the Binding of Lectins with Overlapping Carhohydrate-binding Ligand Specificities,” Biochemistry 34:5685-95 (1995); Aki et al., “Competitive Binding of Drugs to the Multiple Binding Sites on Human Serum Albumin. A calorimetric Study,” J Thermal Anal. calorim. 57:36170 (1999); Graziano et al., “Linkage of Proton Binding to the Thermal Unfolding of Sso7d from the Hyperthermophilic Archaebacterium Sulfolobus solfataricus,” Int'l J. Biol. Macromolecules 26:45-53 (1999); Pluschke & Mutz, “Use of Isothermal Titration calorimetry in the Development of Molecularly Defined Vaccines,” J Thermal Anal. calorim. 57:377-88 (1999); Corbell et al., “A Comparison of Biological and calorimetric Analyses of Multivalent Glycodendrimer Ligands for Concanavalin A,” Tetrahedron-Asymmetry 11:95-111 (2000)). The ability of each peptide to downregulate VEGF transcription in cell culture was evaluated by […] quantitative RT-PCR, as described above. The cytotoxicity of each peptide was determined by monitoring cellular growth and population doubling in the presence of individual peptides at 1μM concentration.

experimental animals = details: cited from earlier work
[4] = test system: HIF-1α C-TAD and p300/CBP; details: literature (Kung et al. 2004); cited from earlier work
p300 [5] = biological target: T1, p300 (UniProt Q09472 323-423, limits assumed); assay: isothermal titration calorimetry
T1 construct: also called p300/CBP
T1 sequence (Q09472 323-423 limits assumed): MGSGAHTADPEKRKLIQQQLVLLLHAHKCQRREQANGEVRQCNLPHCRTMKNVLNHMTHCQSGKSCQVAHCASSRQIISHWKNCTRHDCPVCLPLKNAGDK

Chain of p300 (Homo sapiens, UniProt Q09472) (Q09472 whole entry, the tested form may be a part): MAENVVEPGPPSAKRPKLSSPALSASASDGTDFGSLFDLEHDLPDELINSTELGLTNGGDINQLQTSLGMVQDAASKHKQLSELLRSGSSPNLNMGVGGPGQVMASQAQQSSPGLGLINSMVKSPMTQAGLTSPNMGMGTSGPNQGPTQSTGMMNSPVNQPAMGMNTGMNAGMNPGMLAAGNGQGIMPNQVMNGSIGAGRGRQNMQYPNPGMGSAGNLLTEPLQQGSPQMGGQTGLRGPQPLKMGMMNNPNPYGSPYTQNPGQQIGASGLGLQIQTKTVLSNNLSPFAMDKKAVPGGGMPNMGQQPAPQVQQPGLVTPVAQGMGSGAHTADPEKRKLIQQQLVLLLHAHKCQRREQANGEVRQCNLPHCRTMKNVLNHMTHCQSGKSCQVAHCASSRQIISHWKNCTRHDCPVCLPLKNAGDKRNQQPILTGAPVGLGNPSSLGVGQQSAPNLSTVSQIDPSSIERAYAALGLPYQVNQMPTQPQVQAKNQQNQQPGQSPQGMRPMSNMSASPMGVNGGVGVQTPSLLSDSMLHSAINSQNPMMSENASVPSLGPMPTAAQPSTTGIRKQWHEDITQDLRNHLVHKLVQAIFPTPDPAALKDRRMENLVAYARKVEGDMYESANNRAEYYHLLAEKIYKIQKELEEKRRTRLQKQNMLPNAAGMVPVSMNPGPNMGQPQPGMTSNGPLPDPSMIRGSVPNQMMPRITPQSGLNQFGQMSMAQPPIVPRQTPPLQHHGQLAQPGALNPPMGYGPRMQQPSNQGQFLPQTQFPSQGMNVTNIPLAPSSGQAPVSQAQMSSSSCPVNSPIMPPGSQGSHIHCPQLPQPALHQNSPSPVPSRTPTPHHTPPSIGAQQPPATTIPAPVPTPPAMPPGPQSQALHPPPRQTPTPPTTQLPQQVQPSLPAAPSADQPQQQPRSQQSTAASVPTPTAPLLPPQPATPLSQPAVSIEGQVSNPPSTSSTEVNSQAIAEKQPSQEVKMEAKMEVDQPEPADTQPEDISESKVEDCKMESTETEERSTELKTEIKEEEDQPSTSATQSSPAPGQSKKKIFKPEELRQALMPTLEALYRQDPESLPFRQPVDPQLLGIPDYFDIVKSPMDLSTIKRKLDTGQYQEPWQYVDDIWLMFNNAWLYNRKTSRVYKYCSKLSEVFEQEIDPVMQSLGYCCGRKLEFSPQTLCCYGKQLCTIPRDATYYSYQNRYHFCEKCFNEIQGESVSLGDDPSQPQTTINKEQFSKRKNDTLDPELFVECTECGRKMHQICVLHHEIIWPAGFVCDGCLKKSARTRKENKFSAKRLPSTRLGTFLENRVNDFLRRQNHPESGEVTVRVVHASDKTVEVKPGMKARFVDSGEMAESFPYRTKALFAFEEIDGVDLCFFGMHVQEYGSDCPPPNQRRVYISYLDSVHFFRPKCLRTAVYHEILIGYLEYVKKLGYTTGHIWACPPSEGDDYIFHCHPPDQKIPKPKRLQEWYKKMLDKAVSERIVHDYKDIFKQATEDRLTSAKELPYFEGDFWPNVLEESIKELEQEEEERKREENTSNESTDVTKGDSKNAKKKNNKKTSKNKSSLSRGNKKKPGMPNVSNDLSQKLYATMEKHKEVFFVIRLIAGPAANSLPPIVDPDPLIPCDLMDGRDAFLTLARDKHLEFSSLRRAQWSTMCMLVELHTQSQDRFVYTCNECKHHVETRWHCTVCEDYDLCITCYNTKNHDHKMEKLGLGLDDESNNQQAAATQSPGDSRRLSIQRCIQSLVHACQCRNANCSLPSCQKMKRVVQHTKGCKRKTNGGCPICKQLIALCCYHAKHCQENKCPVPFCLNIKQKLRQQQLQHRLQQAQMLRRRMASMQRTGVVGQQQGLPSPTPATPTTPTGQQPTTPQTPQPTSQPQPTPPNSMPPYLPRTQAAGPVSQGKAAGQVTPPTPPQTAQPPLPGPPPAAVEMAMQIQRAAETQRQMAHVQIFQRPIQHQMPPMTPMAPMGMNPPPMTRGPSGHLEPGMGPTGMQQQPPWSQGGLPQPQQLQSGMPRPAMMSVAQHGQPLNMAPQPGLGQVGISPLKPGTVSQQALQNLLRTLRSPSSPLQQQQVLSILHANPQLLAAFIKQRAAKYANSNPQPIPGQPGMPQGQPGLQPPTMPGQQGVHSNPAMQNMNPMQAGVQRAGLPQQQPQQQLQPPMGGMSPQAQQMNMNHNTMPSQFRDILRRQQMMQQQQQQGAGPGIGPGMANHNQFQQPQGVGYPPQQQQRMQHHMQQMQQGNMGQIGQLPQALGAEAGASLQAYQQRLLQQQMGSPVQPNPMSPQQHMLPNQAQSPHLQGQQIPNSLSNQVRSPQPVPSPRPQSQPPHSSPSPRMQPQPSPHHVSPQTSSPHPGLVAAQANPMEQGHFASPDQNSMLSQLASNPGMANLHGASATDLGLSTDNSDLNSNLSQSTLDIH

Helical content (in words) [2]: appears to be unstructured
% Helicity ([2]; 10 mM phosphate buffered saline): 15%
Molecule: CC(=O)NCC(=O)N[C@H](C(=O)N[C@@H](C)C(=O)N[C@@H](C)C(=O)N[C@@H](CC(=O)O)C(=O)N[C@@H](CS)C(=O)N[C@@H](CCC(=O)O)C(=O)N[C@@H](Cc1ccc(O)cc1)C(=O)N[C@@H](CC(N)=O)C(=O)N[C@@H](C)C(=O)N[C@@H](CCCNC(=N)N)C(N)=O)[C@@H](C)O [Compound 25] (Ac-GTAADCEYNAR-NH2)
Inhibition of VEGF transcription in HeLa cells (in words) [1]: negligible effect
helicity (circular dichroism): 15%
% Transcription inhibition in cell culture (Luc & RT-PCR) (MDA-MB-231-HRE-Luc cells; luciferase assay and qRT-PCR, 1 μM peptide): 8 ± 3%

Kd (p300 [5]): 0.825 µM
B1: peptide 25 (AcGTAADCEYNAR-NH2) (peptide)
peptide: Ac-GTAADCEYNAR-NH2
notes: Unconstrained analog of HBS helix 22; also called linear control peptide 25; control peptide 25

More lines, now with the values behind:

Molecule: CN1C(=O)[C@]2(Cc3cn([C@]45C[C@@]67SS[C@@](CO)(C(=O)N6[C@H]4Nc4ccccc45)N(C)C7=O)c4ccccc34)SS[C@@]1(CO)C(=O)N2C [Compound 26, chetomin, reference compound]
Kd (p300 [3]): 0.12 µM
Side effects in experimental animals (experimental animals): induced coagulative necrosis, anemia, and leukocytosis
Inhibition of interaction between HIF-1α C-TAD and p300/CBP [4]: inhibit the interaction between HIF-1α C-TAD and p300/CBP
% Transcription inhibition in cell culture (MDA-MB-231-HRE-Luc cells; 200 nM chetomin, qRT-PCR or luciferase, method not given): 50 ± 5%
Inhibition of VEGF transcription in cell culture (in words) (MDA-MB-231-HRE-Luc cells; cell culture): more potent inhibitor of VEGF transcription than HBS helix 22

Molecule: CN1C(=O)[C@@]23C[C@]4([C@]56C[C@@]78SS[C@@](CO)(C(=O)N7[C@H]5Nc5ccccc56)N(C)C8=O)c5ccccc5N[C@@H]4N2C(=O)[C@]1(CO)SS3 [chaetocin 1, chaetocin]
Side effects in experimental animals (experimental animals): induced coagulative necrosis, anemia, and leukocytosis

B2: peptide 23 (AcTSYDCEVNA-NH2) (peptide)
peptide: Ac-TSYDCEVNA-NH2
notes: also called linear peptide 23; unconstrained peptide 23
Kd (p300 [5]): 1.35 µM

B3: peptide 24 (AcTAYDCEVNA-NH2) (peptide)
peptide: Ac-TAYDCEVNA-NH2
notes: Unconstrained analog of HBS peptide 20 (alanine in place of serine-797); also called linear peptide 24; unconstrained peptide 24
Kd (p300 [5]): 1.22 µM
